Tests used:
HLA-B*0702 = molecular target: T1, HLA-B*0702 (Homo sapiens, UniProt P01889); test: Measurement of peptide relative affinity to HLA-B*0702 (T2-B7 cells, ME-1 mAb staining); format: binding; conditions: for RA (Relative Affinity to HLA-B*0702): concentration inducing 20% of HLA-B*0702 expression relative to reference peptide CMV265-274, T2-B7 cells, 16 hours, 37° C.
T1 construct: expressed in transfected cells; host or cells: human T2-B7 cells (T2 transfected with HLA-B*0702)
Experimental: Measurement of Peptide Relative Affinity to HLA-B*0702.
The protocol used has been described previously (Rohrlich et al., 2003). Briefly, T2-B7 cells were incubated at 37° C. for 16 hours with peptides concentrations ranging from 100 μM to 0.1 μM, and then stained with ME-1 monoclonal antibody (mAb) to quantify the surface expression of HLA-B*0702. For each peptide concentration, the HLA-B*0702 specific staining was calculated as the percentage of staining obtained with 100 μM of the reference peptide CMV265-274 (R10V; RPHERNGFTV, SEQ ID NO: 172). The relative affinity (RA) was determined as: RA=(Concentration of each peptide that induces 20% of HLA-B*0702-expression/Concentration of the reference peptide that induces 20% of HLA-B*0702 expression).

[1] = tested on: T2-B7 targets loaded with peptide; test: CTL induction in vivo in HLA-B*0702 transgenic mice, Cr51 cytotoxic assay; conditions: for Immunogenicity: X mice developed a specific response for a total of Y mice vaccinated, 100 μg peptide subcutaneously in IFA; for Native peptide cross recognition, MAGE-A A / Native peptide cross recognition, MAGE-A I / Native peptide cross recognition, MAGE-A V: X/Y mice; for Native peptide cross recognition, MAGE-A A: CTL tested against T2-B7 targets loaded with native peptide MAGE-A A; for Native peptide cross recognition, MAGE-A I: CTL tested against T2-B7 targets loaded with native peptide MAGE-A I; for Native peptide cross recognition, MAGE-A V: CTL tested against T2-B7 targets loaded with native peptide MAGE-A V; for Cross recognition of the native peptides by induced CTLs (in words): target cells loaded with native cryptic peptides; for Immunogenicity (in words): vaccinated HLA-B*0702 transgenic mice
Experimental: The HLA-B7 H-2 class-I knockout mice were previously described (Rohrlich et al., 2003).
CTL Induction In Vivo in HLA-B*0702 Transgenic Mice.
Mice were injected subcutaneously with 100 μg of peptide emulsified in Incomplete Freund's Adjuvant (IFA) in the presence of 150 μg of the I-A^b restricted HBVcore128 T helper epitope (TPPAYRPPNAPIL, SEQ ID NO: 173). After 11 days, 5×10^7 spleen cells were stimulated in vitro with peptide (10 μM). On day 6 of culture, the bulk responder populations were tested for specific cytotoxicity.
Targets were labelled with 100 μCi of Cr^51 for 60 min, plated in 96-well V-bottomed plates (3×10^3 cell/well in 100 μL of RPMI 1640 medium) and, when necessary, pulsed with peptides (1 μM) at 37° C. for 2 hours. Effectors were then added in the wells and incubated at 37° C. for 4 hours. Percentage of specific lysis was determined as: % Lysis=(Experimental Release−Spontaneous Release)/(Maximal Release−Spontaneous Release)×100.

In the case of “GPRALIETS (HLA-B7 restricted native peptide) [MAGE-A I]”, the “RA (Relative Affinity to HLA-B*0702)” value (HLA-B*0702) is reported as “− ((−) means RA > 10)”.

In the case of “GPRALVETL (HLA-B7 restricted optimized peptide) [MAGE-A L9]”, the Immunogenicity [1] is reported as 18/18, the “Native peptide cross recognition, MAGE-A A” value [1] is reported as “MAGE-A A (3/8)” and the “Native peptide cross recognition, MAGE-A I” value [1] is reported as “MAGE-A I (3/5)”. For the same sequence, the “Native peptide cross recognition, MAGE-A V” value [1] was “MAGE-A V (4/5)”, the “Cross recognition of the native peptides by induced CTLs (in words)” value [1] was “able to recognize a target cell loaded with each of the native cryptic peptides” and the “Immunogenicity (in words)” value [1] was “strongly immunogenic”.

In the case of “GPRALAETS (HLA-B7 restricted native peptide) [MAGE-A A]”, the “RA (Relative Affinity to HLA-B*0702)” value (HLA-B*0702) is reported as “− ((−) means RA > 10)”.

With “GPRALVETS (HLA-B7 restricted native peptide) [MAGE-A V]” the “RA (Relative Affinity to HLA-B*0702)” value (HLA-B*0702) was “− ((−) means RA > 10)”.

APRALVETL (MAGE-A A1L9 peptide) was tested, and the “Binding to HLA-B*0702 molecules (in words)” value (HLA-B*0702) was “able to bind to MHC”, the “RA (Relative Affinity to HLA-B*0702)” value (HLA-B*0702) was “+ ((+) 5 < RA < 10)” and the Immunogenicity [1] was 6/11. The “Native peptide cross recognition, MAGE-A A” value [1] was “MAGE-A A (1/8)”, the “Native peptide cross recognition, MAGE-A I” value [1] was “MAGE-A I (0/3)” and the “Native peptide cross recognition, MAGE-A V” value [1] was “MAGE-A V (0/3)”. For the same sequence, the “Cross recognition of the native peptides by induced CTLs (in words)” value [1] was “not able to cross-recognize the native peptides” and the “Immunogenicity (in words)” value [1] was “immunogenic”.

Source: patent US10024868B2, “Identification, optimization and use of shared HLA-B*0702 epitopes for immunotherapy” (Vaxon Biotech, priority 2009, dated 2018)
